# Measured values: patent publication US20250134809A1, “A PHYTOACTIVE ENCAPSULATED FORMULATION FOR NEURODEGENERATIVE DISEASES” (Gidaa Life Sciences Pvt. Ltd., priority 2022, published 2025)
# Key:
# Type in all cases: in vivo, rat
# [1] = test system: Alzheimer's Disease model (Aluminium Chloride induced), Wistar male rats; test: Morris water maze in AlCl3-induced Alzheimer's Disease model; details: G3 (Donepezil orally)
# Method: (§1) This compound PHY-001 (Named as MAG XXI in Animal study by CEFTE) has also been subjected to in-vivo animal study at the animal study facility attached to SRMC (Sri Ramachandra Medical College) Hospital, Chennai. In this study, the therapeutic efficacy of this compound was evaluated against Alzheimer's Disease model, by inducing Alzheimer's like pathology by intra peritoneal administration of Aluminium Chloride (Established animal model for studying Alzheimer's disease and efficacy evaluation of a therapeutic intervention).
# (§2) Based on the pilot study observations, a main study was conducted. Totally 30 Wistar male rats were used for the study. Animals were formed into five groups, Group 1-rats served as a control group, animals in group 2 to 5 were injected with AlCl3 intra-peritoneally once daily for four weeks.
# The results of number of times crossed centre at Morris water maze and escape latency which is the […] the animal could find the platform and escape (in 3 minutes), are presented in table 1 & table 2.
# [2] = test system: Alzheimer's Disease model (Aluminium Chloride induced), Wistar male rats; test: Passive avoidance test in AlCl3-induced Alzheimer's Disease model; details: G3 (Donepezil orally)
# Method: as §1, §2
# Significant alteration in dark compartment movement at all weeks is noticed in G2 group when compared to G1 which elucidate the learning memory defect.
# [3] = test system: Alzheimer's Disease model (Aluminium Chloride induced), Wistar male rats; test: Elevated plus maze in AlCl3-induced Alzheimer's Disease model; details: G3 (Donepezil orally); for Elevated plus maze: No. of DF (defacation) / Elevated plus maze: No. of UP (urine pool): Latency period 3 minutes
# Method: as §1, §2
compound,measurement,setting,value
COc1cc2c(cc1OC)C(=O)C(CC1CCN(Cc3ccccc3)CC1)C2 (stereo not shown) [Donepezil],times crossed centre and escape latency when compared to G2,[1],significant elevation
same,Escape latency (in 3 minutes): No. of times find platform and escape,[1]; WK 1,3.33
same,Morris water maze: No. of times crossed center in 1 minute (mean values),[1]; WK 1,2.5
same,Escape latency (in 3 minutes): No. of times find platform and escape,[1]; WK 2,2.67
same,Morris water maze: No. of times crossed center in 1 minute (mean values),[1]; WK 2,2.67
same,Escape latency (in 3 minutes): No. of times find platform and escape,[1]; WK 3,3.33
same,Morris water maze: No. of times crossed center in 1 minute (mean values),[1]; WK 3,2.83
same,Escape latency (in 3 minutes): No. of times find platform and escape,[1]; WK 4,3.5
same,Morris water maze: No. of times crossed center in 1 minute (mean values),[1]; WK 4,3.33
same,dark compartment movement when compared to G2,[2],significant reversal
same,Passive avoidance: latency to enter dark chamber (mean values),[2]; WK 1,31.83 s
same,Passive avoidance: latency to enter dark chamber (mean values),[2]; WK 2,42 s
same,Passive avoidance: latency to enter dark chamber (mean values),[2]; WK 3,45.33 s
same,Passive avoidance: latency to enter dark chamber (mean values),[2]; WK 4,47 s
same,Elevated plus maze: No. of DF (defacation),[3]; WK 1,1
same,Elevated plus maze: No. of UP (urine pool),[3]; WK 1,0.5
same,Elevated plus maze: No. of DF (defacation),[3]; WK2,0.5
same,Elevated plus maze: No. of UP (urine pool),[3]; WK2,0.17
same,Elevated plus maze: No. of DF (defacation),[3]; WK 3,1.17
same,Elevated plus maze: No. of UP (urine pool),[3]; WK 3,1.33
same,Elevated plus maze: No. of DF (defacation),[3]; WK 4,0.83
same,Elevated plus maze: No. of UP (urine pool),[3]; WK 4,1.17
same,Elevated plus maze: No. of entries in Closed arm,[3]; WK 1,3.5
same,Elevated plus maze: No. of entries in Open arm,[3]; WK 1,0.33
same,Elevated plus maze: No. of entries in Closed arm,[3]; WK 2,4.17
same,Elevated plus maze: No. of entries in Open arm,[3]; WK 2,0.33
same,Elevated plus maze: No. of entries in Closed arm,[3]; WK 3,2.5
same,Elevated plus maze: No. of entries in Open arm,[3]; WK 3,0
same,Elevated plus maze: No. of entries in Closed arm,[3]; WK 4,2.67
same,Elevated plus maze: No. of entries in Open arm,[3]; WK 4,1.67
same,number of entries in open arm and closed arm when compared to G2,[3]; week 4,significant elevation
